Active and inactive are the calls of the source. The rule behind the calls is not given here.
Columns and labels:
[1] = test system: HCT-116; assay: Cytotoxicity against human HCT116 cells after 48 hrs by MTT assay; type: functional, cell-based; settings: HCT-116, 48 h
[2] = Cytotoxicity against human BGC823 cells after 48 hrs by MTT assay; type: functional, cell-based; settings: BGC-823, 48 h
[3] = Cytotoxicity against human MCF10A cells after 48 hrs by MTT assay; type: cell-based; settings: MCF-10A
[4] = test system: HT-29; assay: Cytotoxicity against human HT-29 cells after 48 hrs by MTT assay; type: functional, cell-based; settings: HT-29, 48 h
[5] = test system: MCF7; assay: Cytotoxicity against human MCF7 cells after 48 hrs by MTT assay; type: functional, cell-based; settings: for IC50: MCF7, 48 h
[6] = test system: MCF7; assay: Induction of apoptosis in human MCF7 cells assessed as bubble-shaped regions at 20 uM after 36 hrs by phase-contrast microscopic analysis; type: functional, cell-based
[7] = test system: MCF7; assay: Induction of apoptosis in human MCF7 cells assessed as condensed chromatin in nucleus at 20 uM after 36 hrs by DAPI staining; type: functional, cell-based
[8] = test system: MCF7; assay: Cytotoxicity against human MCF7 cells at 1 uM by MTT assay; type: functional, cell-based; settings: TDE = time-dependent effect
[9] = test system: MCF7; assay: Cell cycle arrest in human MCF7 cells assessed as accumulation at subG1 phase at 20 uM after 12 to 36 hrs using propidium-iodide staining by flow-cytometry (reference value: 0.41%); type: functional
[10] = test system: MCF7; assay: Cell cycle arrest in human MCF7 cells assessed as accumulation at M1 phase at 20 uM after 12 to 36 hrs using propidium-iodide staining by flow-cytometry (reference value: 0.95%); type: functional

## CC(C)(O)CCC[C@@H](CO[C@@H]1O[C@H](CO)[C@@H](O)[C@H](O)[C@H]1O)[C@H]1CC[C@]2(C)[C@@H]1CC[C@@H]1C3=C(CC[C@]12C)C(C)(C)[C@@H]1CC[C@H]3O1
[1]
  IC50: > 100 µM
[2]
  IC50: > 100 µM
[3]
  IC50: > 100 µM
[4]
  IC50: 32 µM
[5]
  IC50: 21.2 µM

## CC(C)(O)CC/C=C(/CO[C@@H]1O[C@H](CO)[C@@H](O)[C@H](O)[C@H]1O)[C@H]1CC[C@]2(C)[C@@H]1CC[C@@H]1[C@@]3(C)CC[C@H](O)C(C)(C)[C@@H]3CC[C@]12C
[1]
  IC50: 67.3 µM
[2]
  IC50: > 100 µM
[3]
  IC50: > 100 µM
[4]
  IC50: 33.6 µM
[5]
  IC50: 52.4 µM

## CC(C)(O)CC/C=C(/CO[C@@H]1O[C@H](CO)[C@@H](O)[C@H](O)[C@H]1O)[C@H]1CC[C@]2(C)[C@@H]1CC[C@@H]1C3=C(CC[C@]12C)C(C)(C)[C@@H]1CC[C@H]3O1
[1]
  IC50: > 100 µM
[2]
  IC50: > 100 µM
[3]
  IC50: > 100 µM
[4]
  IC50: 26.1 µM
[5]
  IC50: 14.3 µM

## COC(C)(C)CCC[C@@](O)(CO[C@@H]1O[C@H](CO)[C@@H](O)[C@H](O)[C@H]1O)[C@H]1CC[C@]2(C)[C@@H]1CC[C@@H]1C3=C(CC[C@]12C)C(C)(C)[C@@H]1CC[C@H]3O1
[6]
  Activity: Active
[7]
  Activity: Active
[1]
  IC50: 55.7 µM
[2]
  IC50: > 100 µM
[3]
  IC50: > 100 µM
[8]
  Activity: tde
[9]
  Activity: 17.09%
[10]
  Activity: 74.59%
[4]
  IC50: 28.1 µM
[5]
  Activity: Dose-dependent effect
  IC50: 6.85 µM

## CC(C)(O)CC/C=C(/CO[C@@H]1O[C@H](CO)[C@@H](O)[C@H](O)[C@H]1O)[C@@H]1CC[C@]2(C)[C@@H]1CC[C@@H]1[C@@]3(C)CC[C@H](O)C(C)(C)[C@@H]3CC[C@]12C
[1]
  IC50: 66.5 µM
[2]
  IC50: > 100 µM
[3]
  IC50: > 100 µM
[4]
  IC50: 30.5 µM
[5]
  IC50: 46.3 µM

From ChEMBL document CHEMBL3600332, “Novel dammarane-type triterpenes isolated from hydrolyzate of total Gynostemma pentaphyllum saponins” (Bioorg Med Chem Lett, 2015)
